Assay results published in PubChem BioAssay AID256 (DTP/NCI, 2004).
Values joined by “and” are separate entries in the source; they are usually repeats but may differ in a detail not shown here. Equal values may be shown once. Inconclusive results and toxic doses are left out. How the source made its calls: active means survival T/C of 150% or more; inactive means T/C below 125% in these data.

Tested on: CD2F1 mice, L1210 leukemia ip, survival T/C
Assay: NCI In Vivo Anticancer Drug Screen. Data for tumor model L1210 Leukemia (intraperitoneal) in CD2F1 (CDF1) mice
Conditions: higher = longer survival
How it was run: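 Vehicle-treated tumor-bearing mice served as controls (C) for compound-treated mice (T). Reported figure is T divided by C.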

[1] = endpoint: mean survival time, dose: 100.0 mg/kg/injection, schedule: Q04DX003 (ip), vehicle: saline with Tween-80
[2] = endpoint: mean survival time, dose: 200.0 mg/kg/injection, schedule: Q04DX003 (ip), vehicle: saline with Tween-80
[3] = endpoint: mean survival time, dose: 400.0 mg/kg/injection, schedule: Q04DX003 (ip), vehicle: saline with Tween-80
[4] = endpoint: mean survival time, dose: 25.0 mg/kg/injection, schedule: Q04DX003 (ip), vehicle: saline with Tween-80
[5] = endpoint: mean survival time, dose: 50.0 mg/kg/injection, schedule: Q04DX003 (ip), vehicle: saline with Tween-80
[6] = endpoint: mean survival time, dose: 100.0 mg/kg/injection, schedule: Q01DX009 (ip), vehicle: saline with Tween-80
[7] = endpoint: mean survival time, dose: 200.0 mg/kg/injection, schedule: Q01DX009 (ip), vehicle: saline with Tween-80
[8] = endpoint: mean survival time, dose: 400.0 mg/kg/injection, schedule: Q01DX009 (ip), vehicle: saline with Tween-80
[9] = endpoint: mean survival time, dose: 100.0 mg/kg/injection, schedule: Q04DX002 (ip), vehicle: saline with Tween-80
[10] = endpoint: mean survival time, dose: 200.0 mg/kg/injection, schedule: Q04DX002 (ip), vehicle: saline with Tween-80
[11] = endpoint: mean survival time, dose: 400.0 mg/kg/injection, schedule: Q04DX002 (ip), vehicle: saline with Tween-80
[12] = endpoint: mean survival time, dose: 100.0 mg/kg/injection, schedule: Q01DX001 (ip), vehicle: saline
[13] = endpoint: mean survival time, dose: 200.0 mg/kg/injection, schedule: Q01DX001 (ip), vehicle: saline
[14] = endpoint: mean survival time, dose: 400.0 mg/kg/injection, schedule: Q01DX001 (ip), vehicle: saline

Measured: T/C

C=CCN(C)N=Nc1ccc(NC(N)=O)cc1
inactive: endpoint: mean survival time, dose: 2.34 mg/kg/injection, schedule: Q01DX009 (ip), vehicle: Klucel (hydroxypropylcellulose) (HPC) 100 % of control and 104 % of control | endpoint: mean survival time, dose: 4.68 mg/kg/injection, schedule: Q01DX009 (ip), vehicle: Klucel (hydroxypropylcellulose) (HPC) 104 % of control and 107 % of control | endpoint: mean survival time, dose: 9.37 mg/kg/injection, schedule: Q01DX009 (ip), vehicle: Klucel (hydroxypropylcellulose) (HPC) 110 % of control | endpoint: mean survival time, dose: 18.75 mg/kg/injection, schedule: Q01DX009 (ip), vehicle: Klucel (hydroxypropylcellulose) (HPC) 120 % of control | endpoint: mean survival time, dose: 75.0 mg/kg/injection, schedule: Q01DX009 (ip), vehicle: Klucel (hydroxypropylcellulose) (HPC) 98 % of control

CSc1nc(NC2OC(CO)C(O)C(O)C2O)c(I)c(=O)n1C (stereo not given)
inactive: endpoint: median survival time, dose: 12.5 mg/kg/injection, schedule: Q01DX005 (ip), vehicle: saline with Tween-80 100 % of control | endpoint: median survival time, dose: 25.0 mg/kg/injection, schedule: Q01DX005 (ip), vehicle: saline with Tween-80 100 % of control | endpoint: median survival time, dose: 50.0 mg/kg/injection, schedule: Q01DX005 (ip), vehicle: saline with Tween-80 103 % of control | endpoint: median survival time, dose: 100.0 mg/kg/injection, schedule: Q01DX005 (ip), vehicle: saline with Tween-80 107 % of control | endpoint: median survival time, dose: 200.0 mg/kg/injection, schedule: Q01DX005 (ip), vehicle: saline with Tween-80 119 % of control

S=C(NCCSSCCNC(=S)Nc1ccccc1)Nc1ccccc1
inactive: [1] 98 % of control | [2] 94 % of control | [3] 86 % of control

O=c1cc[nH]c(=S)[nH]1.[Pd]
inactive: endpoint: mean survival time, dose: 3.13 mg/kg/injection, schedule: Q04DX003 (ip), vehicle: distilled water + Tween-80 101 % of control | endpoint: mean survival time, dose: 6.25 mg/kg/injection, schedule: Q04DX003 (ip), vehicle: distilled water + Tween-80 101 % of control | endpoint: mean survival time, dose: 12.5 mg/kg/injection, schedule: Q04DX003 (ip), vehicle: distilled water + Tween-80 96 % of control | endpoint: mean survival time, dose: 25.0 mg/kg/injection, schedule: Q04DX003 (ip), vehicle: distilled water + Tween-80 98 % of control | endpoint: mean survival time, dose: 50.0 mg/kg/injection, schedule: Q04DX003 (ip), vehicle: distilled water + Tween-80 95 % of control | endpoint: mean survival time, dose: 100.0 mg/kg/injection, schedule: Q04DX003 (ip), vehicle: distilled water + Tween-80 90 % of control | endpoint: mean survival time, dose: 200.0 mg/kg/injection, schedule: Q04DX003 (ip), vehicle: distilled water + Tween-80 90 % of control

CNCC(=O)NC(CO)C(=O)NC(CO)C(=O)NC1C(C(N)=O)OC(n2ccc(N)nc2=O)C(O)C1O (stereo not given)
inactive: endpoint: mean survival time, dose: 0.19 mg/kg/injection, schedule: Q01DX005 (ip), vehicle: water 98 % of control | endpoint: mean survival time, dose: 0.38 mg/kg/injection, schedule: Q01DX005 (ip), vehicle: water 104 % of control | endpoint: mean survival time, dose: 0.75 mg/kg/injection, schedule: Q01DX005 (ip), vehicle: water 98 % of control

COC12C(COC(N)=O)C3=C(C(=O)C(C)=C(NC(C)C)C3=O)N1CC1NC12 (stereo not given)
inactive: endpoint: mean survival time, dose: 1.5 mg/kg/injection, schedule: Q01DX001 (ip), vehicle: water 96 % of control (2×) and 102 % of control | endpoint: mean survival time, dose: 48.0 mg/kg/injection, schedule: Q01DX001 (ip), vehicle: water 87 % of control

COC(=O)c1cc2ccccc2[nH]c1=O
inactive: endpoint: mean survival time, dose: 75.0 mg/kg/injection, schedule: Q01DX001 (ip), vehicle: other 97 % of control | endpoint: mean survival time, dose: 150.0 mg/kg/injection, schedule: Q01DX001 (ip), vehicle: other 96 % of control | endpoint: mean survival time, dose: 300.0 mg/kg/injection, schedule: Q01DX001 (ip), vehicle: other 97 % of control

COC(=O)/C=C/N(CCF)CCF
inactive: endpoint: mean survival time, dose: 1.0 mg/kg/injection, schedule: Q01DX Z (ip), vehicle: saline 94 % of control | endpoint: mean survival time, dose: 3.0 mg/kg/injection, schedule: Q01DX Z (ip), vehicle: saline 108 % of control

CCc1cccc([N+](=O)[O-])c1CC
inactive: [4] 97 % of control | [5] 95 % of control | [1] 100 % of control and 105 % of control

OC1(C2(O)c3ccccc3Oc3ccccc32)c2ccccc2Oc2ccccc21
inactive: endpoint: mean survival time, dose: 100.0 mg/kg/injection, schedule: Q01DX009 (ip), vehicle: saline 99 % of control | endpoint: mean survival time, dose: 200.0 mg/kg/injection, schedule: Q01DX009 (ip), vehicle: saline 97 % of control

CCCCn1c2ccccc2c2ccccc21
inactive: [1] 94 % of control | [3] 94 % of control

CC(=O)N1NC2C(=O)N(C3CCCCC3)CC2C1c1ccccc1 (stereo not given)
inactive: [6] 93 % of control | [7] 100 % of control | [8] 93 % of control

Cc1ccc(C(=O)NN)cc1
inactive: [4] 96 % of control | [5] 96 % of control | [1] 95 % of control and 107 % of control

Cc1c2c(c(C)c3c(C)nccc13)Cc1ccccc1-2
inactive: [9] 92 % of control | [10] 92 % of control | [11] 88 % of control

CCCCCCCCCCCCCCC(=O)Nc1ccccc1
inactive: endpoint: mean survival time, dose: 12.5 mg/kg/injection, schedule: Q04DX002 (ip), vehicle: saline with Tween-80 101 % of control | endpoint: mean survival time, dose: 25.0 mg/kg/injection, schedule: Q04DX002 (ip), vehicle: saline with Tween-80 96 % of control | endpoint: mean survival time, dose: 50.0 mg/kg/injection, schedule: Q04DX002 (ip), vehicle: saline with Tween-80 86 % of control | endpoint: mean survival time, dose: 200.0 mg/kg/injection, schedule: Q01DX001 (ip), vehicle: saline with Tween-80 89 % of control

CCC(C)(CC(=O)OC)C(=O)OC (stereo not given)
inactive: [12] 108 % of control | [13] 104 % of control | [14] 108 % of control

CCCC(=O)O.CCCC(=O)O.CCCC(=O)O.CCCC(=O)O.O=P1(N(CCCl)CCCl)NCCCO1.O=P1(N(CCCl)CCCl)NCCCO1.[Rh].[Rh] (stereo not given)
inactive: endpoint: median survival time, dose: 0.13 mg/kg/injection, schedule: Q01DX001 (ip), vehicle: olive oil, sesame oil, peanut oil 101 % of control | endpoint: median survival time, dose: 0.25 mg/kg/injection, schedule: Q01DX001 (ip), vehicle: olive oil, sesame oil, peanut oil 102 % of control | endpoint: median survival time, dose: 0.5 mg/kg/injection, schedule: Q01DX001 (ip), vehicle: olive oil, sesame oil, peanut oil 103 % of control | endpoint: median survival time, dose: 1.0 mg/kg/injection, schedule: Q01DX001 (ip), vehicle: olive oil, sesame oil, peanut oil 95 % of control | endpoint: median survival time, dose: 2.0 mg/kg/injection, schedule: Q01DX001 (ip), vehicle: olive oil, sesame oil, peanut oil 102 % of control

NC(N)=N/N=C/C/C=N/N=C(N)N
inactive: endpoint: mean survival time, dose: 30.0 mg/kg/injection, schedule: Q01DX009 (ip), vehicle: saline 91 % of control | endpoint: mean survival time, dose: 60.0 mg/kg/injection, schedule: Q01DX009 (ip), vehicle: saline 90 % of control | endpoint: mean survival time, dose: 120.0 mg/kg/injection, schedule: Q01DX009 (ip), vehicle: saline 93 % of control | endpoint: mean survival time, dose: 240.0 mg/kg/injection, schedule: Q01DX009 (ip), vehicle: saline 90 % of control | endpoint: mean survival time, dose: 480.0 mg/kg/injection, schedule: Q01DX009 (ip), vehicle: saline 90 % of control

CCCCCCCCC(=O)N1CCOCC1
inactive: [6] 108 % of control | endpoint: mean survival time, dose: 150.0 mg/kg/injection, schedule: Q04DX003 (ip), vehicle: saline 96 % of control

CC(C)N1CCOC1c1ccccc1 (stereo not given)
inactive: endpoint: mean survival time, dose: 75.0 mg/kg/injection, schedule: Q01DX001 (ip), vehicle: saline 101 % of control | endpoint: mean survival time, dose: 150.0 mg/kg/injection, schedule: Q01DX001 (ip), vehicle: saline 101 % of control | endpoint: mean survival time, dose: 300.0 mg/kg/injection, schedule: Q01DX001 (ip), vehicle: saline 97 % of control

CCc1ccccc1OCC1CO1 (stereo not given)
inactive: [12] 102 % of control | [13] 100 % of control | [14] 102 % of control

NC(=S)N/N=C/c1ccc([N+](=O)[O-])cc1
inactive: endpoint: mean survival time, dose: 75.0 mg/kg/injection, schedule: Q01DX001 (ip), vehicle: saline with Tween-80 95 % of control

C#CCSc1c(Cl)c(Cl)c(Cl)c(Cl)c1Cl
inactive: [9] 87 % of control | [10] 95 % of control | [11] 87 % of control

COC(=O)CCCCC(C)=O
inactive: [6] 101 % of control | endpoint: mean survival time, dose: 100.0 mg/kg/injection, schedule: Q04DX003 (ip), vehicle: saline sonified 98 % of control | [7] 101 % of control | endpoint: mean survival time, dose: 200.0 mg/kg/injection, schedule: Q04DX003 (ip), vehicle: saline sonified 98 % of control | [8] 98 % of control | endpoint: mean survival time, dose: 400.0 mg/kg/injection, schedule: Q04DX003 (ip), vehicle: saline sonified 102 % of control

[Co].[O-][Cl+3]([O-])([O-])O.c1ccc([PH+](CC[PH+](c2ccccc2)c2ccccc2)c2ccccc2)cc1.c1ccc([PH+](CC[PH+](c2ccccc2)c2ccccc2)c2ccccc2)cc1
inactive: endpoint: mean survival time, dose: 6.25 mg/kg/injection, schedule: Q04DX003 (ip), vehicle: saline with Tween-80 94 % of control | endpoint: mean survival time, dose: 12.5 mg/kg/injection, schedule: Q04DX003 (ip), vehicle: saline with Tween-80 98 % of control | [4] 110 % of control | [2] 91 % of control
